Experimental data as given in paper PMC10282093, “Structural basis of α1A-adrenergic receptor activation and recognition by an extracellular nanobody” (Nature Communications, 2023).
Several values for one entry are separate records, joined by “and”; a condition that tells them apart may be missing. Equal entries are not always repeated. Where two headings read alike, the source gives them in different places.

What was measured:
HEK293T cells (mock) = assay: Glo-sensor cAMP assay, mock (negative control); type: cell-based
Description: In brief, […] plasmid, receptor plasmid, and Gsq plasmid were transfected into HEK293T cells. At 24 h after transfection, the cells were switched into a CO2-Independent Medium (Gibco) and incubated with GloSensor^TM cAMP reagent. The mixture was then transferred to a 96-well white plate. The 96-well plate is placed at 37 °C in the dark for 1 h, then placed at room temperature in the dark for 1 h before use. […] The result curves were calculated and fitted by GraphPad Prism 9.

α1AAR [1] = target: T1, α1AAR (Homo sapiens, UniProt P35348); assay: Glo-sensor cAMP signaling assay with engineered Gsq protein in HEK293T cells; details: HEK-293T
T1 sequence (P35348 1-466): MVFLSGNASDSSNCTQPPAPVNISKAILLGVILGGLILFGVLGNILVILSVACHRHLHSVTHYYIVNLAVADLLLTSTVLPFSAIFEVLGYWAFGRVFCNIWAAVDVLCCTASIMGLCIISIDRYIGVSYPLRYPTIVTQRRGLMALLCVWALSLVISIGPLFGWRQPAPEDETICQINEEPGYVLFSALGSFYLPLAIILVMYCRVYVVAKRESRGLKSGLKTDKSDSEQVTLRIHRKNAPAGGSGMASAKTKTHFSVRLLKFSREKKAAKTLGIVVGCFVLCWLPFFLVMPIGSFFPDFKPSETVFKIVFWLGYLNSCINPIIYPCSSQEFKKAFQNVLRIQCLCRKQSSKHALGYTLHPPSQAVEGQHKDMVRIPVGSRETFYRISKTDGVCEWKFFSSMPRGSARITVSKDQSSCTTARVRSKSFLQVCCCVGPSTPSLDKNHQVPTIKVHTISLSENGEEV
Description: In brief, pGloSensor™−22F plasmid, receptor plasmid, and Gsq plasmid were transfected into HEK293T cells. At 24 h after transfection, the cells were switched into a CO2-Independent Medium (Gibco) and incubated with GloSensor^TM cAMP reagent. The mixture was then transferred to a 96-well white plate. The 96-well plate is placed at 37 °C in the dark for 1 h, then placed at room temperature in the dark for 1 h before use. […] The result curves were calculated and fitted by GraphPad Prism 9.

α1AAR [2] = target: T2, α1AAR (Homo sapiens, UniProt P35348); assay: [3H]prazosin radioligand binding, Sf9 membranes; details: for [3H]prazosin binding: SupFig 5b, listed as Tam
T2 sequence (P35348 1-370): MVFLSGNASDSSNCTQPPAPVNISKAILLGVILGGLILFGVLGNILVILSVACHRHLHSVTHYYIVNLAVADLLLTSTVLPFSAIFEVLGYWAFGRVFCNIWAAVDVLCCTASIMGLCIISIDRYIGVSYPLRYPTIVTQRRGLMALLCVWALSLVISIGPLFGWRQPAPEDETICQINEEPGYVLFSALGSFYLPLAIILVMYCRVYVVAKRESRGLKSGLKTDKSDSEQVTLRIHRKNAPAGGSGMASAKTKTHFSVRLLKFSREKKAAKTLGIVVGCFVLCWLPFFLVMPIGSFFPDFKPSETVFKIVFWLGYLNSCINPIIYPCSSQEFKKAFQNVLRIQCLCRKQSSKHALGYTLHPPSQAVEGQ
Description: After centrifugation, the pellet was homogenized in binding buffer and used as the membrane fraction in binding assays. […] Receptors were incubated for 1 h at room temperature with various concentrations of ligand in a total volume of 100 µl. After the reaction, the mixture was trapped on Whatman GF/B glass filters. Bound and free radioligands were separated by washing with ice-cold binding buffer. Radioactivity was measured on a MicroBeta2 liquid scintillation counter (PerkinElmer).

NC[C@H](O)c1ccc(O)c(O)c1 [Noradrenaline, noradrenaline]
cAMP Glo-sensor signal (Noradrenaline %) (HEK293T cells (mock); NA Log[M] -4, listed as NA): 41.093% and 40.8624% and 40.5271%
cAMP Glo-sensor signal (Noradrenaline %) (HEK293T cells (mock); NA Log[M] -5, listed as NA): 20.1779% and 21.0064% and 19.7646%
cAMP Glo-sensor signal (Noradrenaline %) (HEK293T cells (mock); NA Log[M] -6, listed as NA): 7.941% and 8.285% and 8.539%
cAMP Glo-sensor signal (Noradrenaline %) (HEK293T cells (mock); NA Log[M] -7, listed as NA): 6.318% and 5.663% and 5.337%
cAMP Glo-sensor signal (Noradrenaline %) (HEK293T cells (mock); NA Log[M] -8, listed as NA): 5.486% and 4.494% and 5.028%
cAMP Glo-sensor signal (Noradrenaline %) (HEK293T cells (mock); NA Log[M] -9, listed as NA): 5.1702% and 5.365% and 5.344%
cAMP Glo-sensor signal (Noradrenaline %) (HEK293T cells (mock); NA Log[M] -10, listed as NA): 5.58% and 5.603% and 5.064%
cAMP Glo-sensor signal (Noradrenaline %) (HEK293T cells (mock); NA Log[M] -11, listed as NA): 6.233% and 5.97% and 5.757%
activation at 0.01 µM (α1AAR [1]; 5 min, read-out: α1AAR activation (Noradrenaline %), 10 nM NA, 5 min): 27.1%
activation at 0.01 µM (α1AAR [1]; 5.5 min, read-out: α1AAR activation (Noradrenaline %), 10 nM NA, […]): 32.4%
activation at 0.01 µM (α1AAR [1]; 0.1 h, read-out: α1AAR activation (Noradrenaline %), 10 nM NA, 6 min): 36.3%
activation at 0.01 µM (α1AAR [1]; 6.5 min, read-out: α1AAR activation (Noradrenaline %), 10 nM NA, […]): 40.4%
activation at 0.01 µM (α1AAR [1]; 7 min, read-out: α1AAR activation (Noradrenaline %), 10 nM NA, 7 min): 44.7%
activation at 0.01 µM (α1AAR [1]; 0.125 h, read-out: α1AAR activation (Noradrenaline %), 10 nM NA, 7.5 min): 51.2%
activation at 0.01 µM (α1AAR [1]; 8 min, read-out: α1AAR activation (Noradrenaline %), 10 nM NA, 8 min): 54.9%
activation at 0.01 µM (α1AAR [1]; 8.5 min, read-out: α1AAR activation (Noradrenaline %), 10 nM NA, 8.5 min): 60.5%
activation at 0.01 µM (α1AAR [1]; 0.175 h, read-out: α1AAR activation (Noradrenaline %), 10 nM NA, 10.5 min): 78.1%
activation at 0.01 µM (α1AAR [1]; 11 min, read-out: α1AAR activation (Noradrenaline %), 10 nM NA, 11 min): 83.6%
activation at 0.01 µM (α1AAR [1]; 11.5 min, read-out: α1AAR activation (Noradrenaline %), 10 nM NA, […]): 88.1%
activation at 0.01 µM (α1AAR [1]; 0.2 h, read-out: α1AAR activation (Noradrenaline %), 10 nM NA, 12 min): 90.9%
activation at 0.01 µM (α1AAR [1]; 12.5 min, read-out: α1AAR activation (Noradrenaline %), 10 nM NA, 12.5 min): 92.5%
activation at 0.01 µM (α1AAR [1]; 13 min, read-out: α1AAR activation (Noradrenaline %), 10 nM NA, 13 min): 95.2%
activation at 0.01 µM (α1AAR [1]; 0.225 h, read-out: α1AAR activation (Noradrenaline %), 10 nM NA, 13.5 min): 98.2%
activation at 0.01 µM (α1AAR [1]; 14 min, read-out: α1AAR activation (Noradrenaline %), 10 nM NA, 14 min): 99.3%
activation at 0.01 µM (α1AAR [1]; 14.5 min, read-out: α1AAR activation (Noradrenaline %), 10 nM NA, […]): 99.1%
activation at 0.01 µM (α1AAR [1]; 0.25 h, read-out: α1AAR activation (Noradrenaline %), 10 nM NA, 15 min): 102%
activation at 0.01 µM (α1AAR [1]; 15.5 min, read-out: α1AAR activation (Noradrenaline %), 10 nM NA, 15.5 min): 102%
activation at 0.01 µM (α1AAR [1]; 16 min, read-out: α1AAR activation (Noradrenaline %), 10 nM NA, 16 min): 101%
activation at 0.01 µM (α1AAR [1]; 17 min, read-out: α1AAR activation (Noradrenaline %), 10 nM NA, 17 min): 99.9%
activation at 0.01 µM (α1AAR [1]; 17.5 min, read-out: α1AAR activation (Noradrenaline %), 10 nM NA, 17.5 min): 99.3%
activation at 0.01 µM (α1AAR [1]; 0.3 h, read-out: α1AAR activation (Noradrenaline %), 10 nM NA, 18 min): 99.3%
activation at 0.01 µM (α1AAR [1]; 18.5 min, read-out: α1AAR activation (Noradrenaline %), 10 nM NA, 18.5 min): 99%
activation at 0.01 µM (α1AAR [1]; 19 min, read-out: α1AAR activation (Noradrenaline %), 10 nM NA, 19 min): 96.4%
activation at 0.01 µM (α1AAR [1]; 0.325 h, read-out: α1AAR activation (Noradrenaline %), 10 nM NA, 19.5 min): 97.2%
activation at 0.01 µM (α1AAR [1]; 20 min, read-out: α1AAR activation (Noradrenaline %), 10 nM NA, 20 min): 96%
activation at 0.01 µM (α1AAR [1]; […], read-out: α1AAR activation (Noradrenaline %), 10 nM NA, 9 min): 64.4%
activation at 0.01 µM (α1AAR [1]; […], read-out: α1AAR activation (Noradrenaline %), 10 nM NA, 16.5 min): 100%
activation at 100 µM (α1AAR [1]; read-out: α1AAR activation (Noradrenaline %), NA Log[M] -4): 86.3%
activation at 1 µM (α1AAR [1]; read-out: α1AAR activation (Noradrenaline %), NA Log[M] -6): 105%
activation at 0.1 µM (α1AAR [1]; read-out: α1AAR activation (Noradrenaline %), NA Log[M] -7): 82.8%
activation at 0.01 µM (α1AAR [1]; read-out: α1AAR activation (Noradrenaline %), NA Log[M] -8): 45.2%

CCOc1ccccc1OCCN[C@H](C)Cc1ccc(OC)c(S(N)(=O)=O)c1 [Tamsulosin, tamsulosin]
[3H]prazosin binding (α1AAR [2]; Tam Log[M] -4): 3.325% and 3.807% and 3.682%
[3H]prazosin binding (α1AAR [2]; Tam Log[M] -5): 5.496% and 6.839% and 6.881%
[3H]prazosin binding (α1AAR [2]; Tam Log[M] -6): 11.244% and 11.6216% and 10.1426%
[3H]prazosin binding (α1AAR [2]; Tam Log[M] -7): 16.0268% and 19.0266% and 22.7187%
[3H]prazosin binding (α1AAR [2]; Tam Log[M] -8): 68.1875% and 65.3346% and 66.6562%
[3H]prazosin binding (α1AAR [2]; Tam Log[M] -9): 89.8993% and 114.569% and 102.297%
[3H]prazosin binding (α1AAR [2]; Tam Log[M] -10): 91.4097% and 102.161% and 96.6541%
[3H]prazosin binding (α1AAR [2]; Tam Log[M] -11): 80.1028% and 92.7732% and 127.271%

B1: Nb6: nanobody that engages the ICL3 of the inactive-state κ-opioid receptor (antibody, V domains shown)
VH: QVQLQESGGGLVQAGESLRLSCAASGTIFRLYDMGWYRRVSGNQRELVASITSGGSTKYGDSVKGRFTISRDNAKNTVYLQMSSLKPEDTAVYYCNAEYRTGIWEELLDGWGQGTQVTVSS
Normalized [3H]prazosin-binding (α1AAR [2]; with 5 μM Nb6): 88.7285% and 103.574% and 107.698%
